Entries after “also recorded” stand apart in the source; their conditions may differ.

The assay concerns primary sympathetic neurons. Briefly: NGF withdrawal assay, neuronal survival quantitated by MTT assay. Particulars: protein expressed by recombinant adenovirus infection, NGF withdrawn. In kind it is cell-based. Here is the method:
One experimental system which can be used to assay for changes in death marker proteins in neurons undergoing cell death employs primary sympathetic neurons that are cultured for 3-5 days in nerve growth factor (NGF) to maintain their survival, after which time NGF is withdrawn to induce apoptosis. Death of the neuron occurs within 48 hours and requires transcription. […] Prior to the commitment point, the neurons can be rescued by re-supplying them with NGF; subsequent to the commitment point, the neurons can no longer be rescued, and are committed to die. As a part of the invention, we have shown that death due to NGF withdrawal in this assay is an apoptotic event (see Example V, below).
To confirm that primary sympathetic neurons die by apoptotic cell death, neurons were infected with a recombinant adenovirus expressing E1B55K, an adenoviral protein known to inhibit apoptosis by inhibiting p53. After adenovirus infection, NGF was withdrawn, and neuronal survival was then quantitated by MTT assay, as in Slack et al. supra.

In the case of “Bcl2: a protein that can inhibit apoptosis”, the “neuronal survival / death after NGF withdrawal” value was “inhibits cell death in NGF-deprived neurons”.

For “E1B55K: adenoviral protein known to inhibit apoptosis by inhibiting p53, expressed from a recombinant adenovirus”, the “neuronal survival / death after NGF withdrawal” value is reported as “inhibits death in NGF-deprived neurons; also recorded: rescue of sympathetic neuron apoptosis”.

Source of the values: patent publication US20020009747A1, “METHODS AND REAGENTS FOR IDENTIFYING MODULATORS OF NEURONAL APOPTOSIS” (priority 1997, published 2002).
